According to publication PMC6112376, “Comprehensive Analyses and Prioritization of Tox21 10K Chemicals Affecting Mitochondrial Function by in-Depth Mechanistic Studies” (Environmental Health Perspectives, 2018):
Like-named read-outs stand apart in the source and are kept apart here.

What was measured:
[1] = tested on: mitochondrial respiratory chain complex III; assay type: biochemical, rat
[2] = tested on: HepG2 cells; assay: Intracellular ATP content (cell viability) assay; assay type: cell-based, human; conditions: Homo sapiens, HepG2, 40 h
[3] = tested on: HepG2 cells; assay: ROS-Glo hydrogen peroxide (ROS) assay; assay type: cell-based, human
[4] = tested on: mitochondrial respiratory chain complex IV; assay type: biochemical, rat
[5] = biological target: T1, mitochondrial respiratory chain complex II (Rattus norvegicus, UniProt P21913+Q641Z9+Q6PCT8+Q920L2); assay: Respiratory chain complex II activity; assay type: biochemical; conditions: tested up to 100μM
T1 construct: Submitochondrial particles were prepared by subjecting the intact rat mitochondria, isolated as described above, to three successive freeze–thaw cycles; from tissue; host or cells: rat liver mitochondria (submitochondrial particles)

[6] = tested on: Caenorhabditis elegans (Bristol N2); conditions: Bristol N2 (wild type), Caenorhabditis elegans, in vivo
[7] = tested on: rat primary hepatocytes
[8] = tested on: hNSC; assay: MMP assay in human neural stem cells (hNSC); assay type: cell-based; conditions: Homo sapiens, Neural stem cell, 1 h, read-out: hNSC IC50 (MMP)
[9] = tested on: rat primary hepatocytes; assay: MMP assay in rat primary hepatocytes; conditions: Rattus norvegicus, Hepatocyte
[10] = tested on: mitochondrial respiratory chain complex V; assay type: biochemical, rat
[11] = tested on: Caenorhabditis elegans strain PE255; assay: In vivo C. elegans ATP status assay; conditions: Caenorhabditis elegans, read-out: LEC LUM: lowest effect concentration for luminescence, a measure of nematode ATP content
[12] = tested on: Nrf2/ARE (ARE-bla HepG2 cells); assay: ARE β-lactamase reporter gene assay; assay type: cell-based, human; conditions: Homo sapiens, read-out: ARE (HepG2) EC50
[13] = tested on: Caenorhabditis elegans (Bristol N2); assay: C. elegans larval development and growth assay; conditions: for minimal effective concentration: Caenorhabditis elegans, read-out: LEC EXT: lowest effect concentration for extinction, a measure of nematode size
[14] = tested on: HepG2 cells; assay: cells; conditions: Homo sapiens; for Emax: HepG2, read-out: MMP assays efficacy (%) HepG2
[15] = tested on: HepG2 cells; conditions: cited from earlier work
[16] = tested on: isolated rat liver mitochondria; assay: Oxygen consumption, Clark-type oxygen electrode; assay type: biochemical
[17] = tested on: mitochondrial respiratory chain complex I; assay type: biochemical, rat
[18] = tested on: HeLa cells expressing YFP-Parkin; assay: Parkin translocation assay; assay type: cell-based, human
[19] = read-out: ATP (HepG2, galactose) IC50
[20] = read-out: ATP (HepG2, glucose) IC50
[21] = 1 h, read-out: Rat hepatocytes IC50 (MMP)
[22] = read-out: MMP assays IC50 (µM) Rat Hepatocytes
[23] = HepG2, 1 h, read-out: HepG2 IC50 Galactose (MMP)
[24] = HepG2, 1 h, read-out: HepG2 IC50 Glucose (MMP)

T1 sequence (Q920L2 35-656): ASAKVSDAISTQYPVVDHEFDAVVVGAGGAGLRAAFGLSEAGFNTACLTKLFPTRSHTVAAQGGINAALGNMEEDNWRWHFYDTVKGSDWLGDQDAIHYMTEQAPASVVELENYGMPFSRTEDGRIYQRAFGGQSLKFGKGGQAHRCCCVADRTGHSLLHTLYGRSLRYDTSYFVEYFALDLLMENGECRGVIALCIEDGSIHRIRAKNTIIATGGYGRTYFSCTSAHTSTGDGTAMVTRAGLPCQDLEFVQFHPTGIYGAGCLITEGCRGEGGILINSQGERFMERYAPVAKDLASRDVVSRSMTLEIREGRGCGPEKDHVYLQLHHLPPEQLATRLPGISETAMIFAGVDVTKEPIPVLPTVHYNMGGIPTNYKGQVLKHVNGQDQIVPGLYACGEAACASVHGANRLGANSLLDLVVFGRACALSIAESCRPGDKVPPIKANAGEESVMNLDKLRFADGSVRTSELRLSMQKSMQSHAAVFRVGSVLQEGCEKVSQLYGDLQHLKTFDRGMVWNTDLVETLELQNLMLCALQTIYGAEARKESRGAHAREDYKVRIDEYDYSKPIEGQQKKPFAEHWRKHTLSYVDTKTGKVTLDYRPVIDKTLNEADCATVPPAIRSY
T1 sequence (P21913 31-282): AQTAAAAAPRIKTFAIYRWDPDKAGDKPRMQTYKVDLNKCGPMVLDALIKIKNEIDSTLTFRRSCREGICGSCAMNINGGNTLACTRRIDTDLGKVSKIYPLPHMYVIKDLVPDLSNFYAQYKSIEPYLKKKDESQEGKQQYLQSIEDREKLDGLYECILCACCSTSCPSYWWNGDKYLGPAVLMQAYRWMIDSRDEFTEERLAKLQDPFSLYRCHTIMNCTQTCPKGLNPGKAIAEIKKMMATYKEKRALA
T1 sequence (Q641Z9 1-169): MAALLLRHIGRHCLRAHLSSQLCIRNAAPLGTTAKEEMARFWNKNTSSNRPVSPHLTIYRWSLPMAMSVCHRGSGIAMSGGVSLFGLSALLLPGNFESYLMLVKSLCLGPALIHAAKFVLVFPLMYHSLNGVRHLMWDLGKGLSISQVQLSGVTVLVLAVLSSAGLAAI
T1 sequence (Q6PCT8 57-159): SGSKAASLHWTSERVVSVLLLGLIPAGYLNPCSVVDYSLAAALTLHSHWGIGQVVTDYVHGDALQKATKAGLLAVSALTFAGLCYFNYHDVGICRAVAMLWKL

C=C(C)[C@H]1Cc2c(ccc3c2O[C@@H]2COc4cc(OC)c(OC)cc4[C@@H]2C3=O)O1 [Rotenone, reference compound]
Complex III % inhibition (activity call) [1]: Inactive | IC50 [2, 19]: 1.63 µM | IC50 [2, 20]: 1.05 µM | EC50 ([3]; Homo sapiens, HepG2, 2 h, read-out: ROS (HepG2) EC50): 4.04 µM | Complex IV % inhibition (activity call) [4]: Inactive | Complex II % inhibition (activity call) [5]: Inactive | inhibitory effect at (concentration) on larval growth in the C. elegans assay [6]: 0.05 µM | MMP assays efficacy (%) Rat Hepatocytes [7]: -86+39% | Rat hepatocytes (efficacy) (MMP) [7]: 0.36±0.22 ( −85.9±10.7 ) % | IC50 [8]: 23.7 µM | IC50 [9, 21]: 0.36 µM | IC50 [9, 22]: 0.2 ± 0.3 µM | Complex V % inhibition (activity call) [10]: Inactive | minimal effective concentration [11]: 0.5 µM | EC50 ([12]; HepG2, 16 h): 0.05 ± 0.02 µM | larval growth effect at 0.5μM ([13]; 0.5 µM): severe larval growth arrest | minimal effective concentration [13]: 0.05 µM | IC50 [14, 23]: 31.8 µM | IC50 [14, 24]: 44.7 µM | IC50 ([14]; HepG2, read-out: MMP assays IC50 (µM) HepG2): 0.0123 µM | Emax [14]: 95% | MMP assays efficacy (%) qHTS-HepG2 [15]: -104±7% | IC50 ([15]; read-out: MMP assays IC50 (µM), qHTS-HepG2): 17.4 ± 1.94 µM | Potential Mechanism [16]: Inhibitor (at complex I) | effect on mitochondrial respiration (in words) [16]: only inhibited glutamate/malate-driven respiration, but not succinate-driven respiration | I-ADP, % of control (O2 consumption rate) ([16]; 0.00128 µM): 91 (44.7) % of control | I-sub, % of control (O2 consumption rate) ([16]; 0.00128 µM): 113 (15.6) % of control | II-ADP, % of control (O2 consumption rate) ([16]; 0.00128 µM): 98 (87.5) % of control | II-sub, % of control (O2 consumption rate) ([16]; 0.00128 µM): 94 (25.3) % of control | I-ADP, % of control (O2 consumption rate) ([16]; 0.0064 µM): 81 (40.2) % of control | I-sub, % of control (O2 consumption rate) ([16]; 0.0064 µM): 114 (15.8) % of control | II-ADP, % of control (O2 consumption rate) ([16]; 0.0064 µM): 83 (74.3) % of control | II-sub, % of control (O2 consumption rate) ([16]; 0.0064 µM): 56 (15.2) % of control | I-ADP, % of control (O2 consumption rate) ([16]; 0.032 µM): 27 (13.1) % of control | I-sub, % of control (O2 consumption rate) ([16]; 0.032 µM): 86 (11.9) % of control | II-ADP, % of control (O2 consumption rate) ([16]; 0.032 µM): 97 (86.1) % of control | II-sub, % of control (O2 consumption rate) ([16]; 0.032 µM): 79 (21.4) % of control | I-ADP, % of control (O2 consumption rate) ([16]; 0.16 µM): 20 (9.9) % of control | I-sub, % of control (O2 consumption rate) ([16]; 0.16 µM): 71 (9.9) % of control | II-ADP, % of control (O2 consumption rate) ([16]; 0.16 µM): 107 (95.0) % of control | II-sub, % of control (O2 consumption rate) ([16]; 0.16 µM): 97 (26.3) % of control | I-ADP, % of control (O2 consumption rate) ([16]; 0.8 µM): 18 (8.9) % of control | I-sub, % of control (O2 consumption rate) ([16]; 0.8 µM): 64 (8.9) % of control | II-ADP, % of control (O2 consumption rate) ([16]; 0.8 µM): 99 (88.3) % of control | II-sub, % of control (O2 consumption rate) ([16]; 0.8 µM): 99 (26.9) % of control | I-ADP, % of control (O2 consumption rate) ([16]; 4 µM): 19 (9.5) % of control | I-sub, % of control (O2 consumption rate) ([16]; 4 µM): 64 (8.8) % of control | II-ADP, % of control (O2 consumption rate) ([16]; 4 µM): 97 (86.3) % of control | II-sub, % of control (O2 consumption rate) ([16]; 4 µM): 97 (26.2) % of control | I-ADP, % of control (O2 consumption rate) ([16]; 20 µM): 18 (8.8) % of control | I-sub, % of control (O2 consumption rate) ([16]; 20 µM): 62 (8.6) % of control | II-ADP, % of control (O2 consumption rate) ([16]; 20 µM): 95 (84.3) % of control | II-sub, % of control (O2 consumption rate) ([16]; 20 µM): 107 (28.9) % of control | inhibitory effect on Complex I at (concentration) [17]: 0.032 µM | Complex I % inhibition ([17]; at 0.032μM): 37.5±3.32 at 0.032μM % | Parkin recruitment [18]: Inactive | Parkin translocation into mitochondria (in words) ([18]; 3 h): did not induce Parkin translocation

C=C(c1ccc(C(=O)O)cc1)c1cc2c(cc1C)C(C)(C)CCC2(C)C [Bexarotene, reference compound]
Complex III % inhibition (activity call) [1]: Inactive | IC50 [2, 19]: 63.2 µM | IC50 [2, 20]: 63.2 µM | ROS (HepG2) EC50 [3]: Inactive | Complex IV % inhibition (activity call) [4]: Inactive | Complex II % inhibition (activity call) [5]: Inactive | LEC (lowest effect concentration), larval growth assay [6]: ≤ 10 µM | MMP assays efficacy (%) Rat Hepatocytes [7]: -112±7% | Rat hepatocytes (efficacy) (MMP) [7]: 39.9±5.09 ( −93.8±8.55 ) % | IC50 [8]: 22.3 µM | IC50 [9, 21]: 39.9 µM | IC50 [9, 22]: 9.08 ± 1.16 µM | Complex V % inhibition (activity call) [10]: Inactive | EC50 ([12]; HepG2, 16 h incubation, mean±SD of three experiments): 11.5 ± 0.75 µM | minimal effective concentration [13]: 10 µM | IC50 [14, 23]: 50.2 µM | IC50 [14, 24]: 50 µM | Emax [14]: 106% | MMP assays efficacy (%) qHTS-HepG2 [15]: -124±6% | IC50 ([15]; read-out: MMP assays IC50 (µM) qHTS-HepG2): 16.5 ± 3.95 µM | Potential Mechanism [16]: Uncoupler + inhibitor | I-ADP, % of control (O2 consumption rate) ([16]; 0.8 µM): 92 (45.5) % of control | I-sub, % of control (O2 consumption rate) ([16]; 0.8 µM): 108 (17.4) % of control | II-ADP, % of control (O2 consumption rate) ([16]; 0.8 µM): 84 (65.0) % of control | II-sub, % of control (O2 consumption rate) ([16]; 0.8 µM): 93 (28.5) % of control | I-ADP, % of control (O2 consumption rate) ([16]; 4 µM): 86 (42.6) % of control | II-ADP, % of control (O2 consumption rate) ([16]; 4 µM): 81 (62.5) % of control | II-sub, % of control (O2 consumption rate) ([16]; 4 µM): 97 (29.8) % of control | I-ADP, % of control (O2 consumption rate) ([16]; 20 µM): 61 (29.8) % of control | I-sub, % of control (O2 consumption rate) ([16]; 20 µM): 155 (25.0) % of control | II-ADP, % of control (O2 consumption rate) ([16]; 20 µM): 39 (30.1) % of control | II-sub, % of control (O2 consumption rate) ([16]; 20 µM): 107 (32.7) % of control | I-ADP, % of control (O2 consumption rate) ([16]; 100 µM): 5 (2.8) % of control | I-sub, % of control (O2 consumption rate) ([16]; 100 µM): 36 (4.9) % of control | II-ADP, % of control (O2 consumption rate) ([16]; 100 µM): 6 (3.8) % of control | II-sub, % of control (O2 consumption rate) ([16]; 100 µM): 24 (5.1) % of control | Complex I % inhibition (activity call) [17]: Inactive | Parkin recruitment [18]: Inactive
